Measured values published in PMC4022671, “Characterization of Mannitol-2-Dehydrogenase in Saccharina japonica: Evidence for a New Polyol-Specific Long-Chain Dehydrogenases/Reductase” (PLoS ONE, 2014).

Target: T1, SjM2DH (mannitol-2-dehydrogenase) (Saccharina japonica, UniProt R9UHL6)
T1 construct: assayed in cell-free extract
Experiment: NADH depletion at OD340, crude E. coli extract with recombinant enzyme
Type: biochemical
Conditions: NADH 1 mM, fructose 100 mM, 100 mM Tris-HCl pH 7.5, 35 °C

T1 sequence (R9UHL6 entry or part of it): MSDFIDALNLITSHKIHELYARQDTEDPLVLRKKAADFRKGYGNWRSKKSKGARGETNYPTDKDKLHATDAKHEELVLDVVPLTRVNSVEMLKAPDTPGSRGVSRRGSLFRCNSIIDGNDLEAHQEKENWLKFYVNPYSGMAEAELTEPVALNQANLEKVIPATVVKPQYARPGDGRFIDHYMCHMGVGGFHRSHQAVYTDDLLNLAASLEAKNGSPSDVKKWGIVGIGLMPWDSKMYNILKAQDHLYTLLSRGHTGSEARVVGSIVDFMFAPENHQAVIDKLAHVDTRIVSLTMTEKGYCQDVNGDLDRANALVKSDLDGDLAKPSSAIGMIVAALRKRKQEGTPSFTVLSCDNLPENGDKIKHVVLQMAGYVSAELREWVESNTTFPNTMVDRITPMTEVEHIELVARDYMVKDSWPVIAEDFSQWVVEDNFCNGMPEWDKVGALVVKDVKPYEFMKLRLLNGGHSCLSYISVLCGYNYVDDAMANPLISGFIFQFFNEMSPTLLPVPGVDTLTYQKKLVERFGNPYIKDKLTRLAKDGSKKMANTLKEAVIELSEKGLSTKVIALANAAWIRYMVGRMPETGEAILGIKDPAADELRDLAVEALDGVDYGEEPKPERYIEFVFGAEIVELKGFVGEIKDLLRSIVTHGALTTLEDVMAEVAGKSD

SMILES	NADH depletion at OD340, crude E. coli extract with recombinant enzyme
OCC1(O)OC[C@@H](O)[C@@H](O)[C@@H]1O (stereo partly drawn) [D-fructose]	When D-fructose was applied as the substrate, a depletion of NADH was detected
NC(=O)C1=CN([C@@H]2O[C@H](COP(=O)(O)OP(=O)(O)OC[C@H]3O[C@@H](n4cnc5c(N)ncnc54)[C@H](O)[C@@H]3O)[C@@H](O)[C@H]2O)C=CC1 [NADH]	reduction of fructose by recombinant SjM2DH exclusively uses NADH as cofactor
